Data from paper PMC9180926, “Discovery of Novel 3-Hydroxyquinazoline-2,4(1H,3H)-Dione Derivatives: A Series of Metal Ion Chelators with Potent Anti-HCV Activities” (International Journal of Molecular Sciences, 2022).

What was measured:
[1] = system: HCV 1b replicon cells (Huh-7.5.1); experiment: Anti-HCV assay, HCV 1b replicon cells with luciferase reporter; assay type: cell-based, hepatitis C virus (HCV) subtype 1b; conditions: Hepatitis C virus, Huh-7.5.1, 72 h, inhibitory rate at 5 μM
[2] = system: HCV 1b replicon cells (Huh-7.5.1); experiment: as above; assay type: cell-based, hepatitis C virus (HCV) subtype 1b; conditions: Hepatitis C virus, HCV 1b replicon cells

SMILES: O=c1[nH]c2cc(-c3ccccc3)ccc2c(=O)n1O [21e, 3-Hydroxy-7-phenylquinazoline-2,4(1H,3H)-dione]
- inhibition at 5 µM [1]: 39.5%
- EC50 ([2]; Huh-7.5.1, 50% effective concentration, mean ± SD): 3.2 ± 0.04 µM
- inhibition at 10 µM ([2]; Huh-7.5.1, 72 h, inhibitory rate at 10 μM, 72 h, read-out: HCV Inhibition 10 μM): 78.1%
